Assays:
Type in all cases: physicochemical
[1] = Water content by Karl Fisher analysis on storage (Example 3)
Method: Water content (% w/w) by Karl Fisher analysis
(§1) Each test material was stored between 2-8*C prior to placing on stability. Each material was sub-divided into 900 mg aliquots, transferred to brown opaque HDPE plastic bottles and flushed with Argon prior to sealing. Sufficient samples were provided for each time point as well as spares for each storage condition. The samples were placed in appropriate incubators previously commissioned at storage conditions 25° C./60% RH, 40° C./75% RH and 60° C.
Water Content by Karl Fisher Analysis
Water content was determined in duplicate on an aliquot of equilibrated material (approximately 100 mg) using a Tritrino 720 KFS Titrator.

[2] = Colour of solution by visible spectrophotometry on storage (Example 3); conditions: 5% w/v solution in water
Method: Colour of solution by UV spectrophotometry.
as §1
Colour by Visible Spectrophotometry
A 5% w/v solution of test material was prepared in water and the absorbance measured at 420 nm in a 1 cm silica cell using a Unicam UV4 Visible/UV spectrophotometer.

[3] = Stability indicating HPLC assay and related substances on storage (Example 3)
Method: Assay (% w/w) and related substances determination
as §1
Testing Procedures Test for Identity Content and Impurities
Testing was performed in duplicate (2×25 mg) in accordance with a stability indicating HPLC assay method. The assay results were reported as M6G as is, M6G as the anhydrous, solvent free material and the anhydrous solvent free material corrected for the salt form using the relevant conversion factor.

[4] = Visual appearance on storage (Example 3)
Method: as §1
The samples were stored for analysis according to the following table: […]

CN1CCC23c4c5ccc(O)c4OC2C(OC2OC(C(=O)O)C(O)C(O)C2O)C=CC3C1C5.CN1CCC23c4c5ccc(O)c4OC2C(OC2OC(C(=O)O)C(O)C(O)C2O)C=CC3C1C5.O=C(O)C=CC(=O)O (stereo not drawn) [Morphine-6-glucuronide fumarate] showed a Moisture ([1]; 1 month, 25° C./60% RH) of 7.26 % w/w, a Moisture ([1]; 1 month, 40° C./75% RH) of 7.94 % w/w and a Moisture ([1]; 1 month, 60° C.) of 5.98 % w/w. It also gave a Moisture ([1]; 3 months, 25° C./60% RH) of 8.00 % w/w, a Moisture ([1]; 3 months, 40° C./75% RH) of 10.89 % w/w and a Moisture ([1]; Initial) of 6.80 % w/w. The Colour ([2]; 1 month, 25° C./60% RH) was 0.034 Abs@420 nm, the Colour ([2]; 1 month, 40° C./75% RH) was 0.264 Abs@420 nm and the Colour ([2]; 1 month, 60° C.) was 0.794 Abs@420 nm. The Colour ([2]; 3 months, 25° C./60% RH) was 0.141 Abs@420 nm, the Colour ([2]; 3 months, 40° C./75% RH) was 1.008 Abs@420 nm and the Colour ([2]; Initial) was 0.016 Abs@420 nm. For the same compound, the “Known Related Substances HN33177” value ([3]; 1 month, 25° C./60% RH) was 0.80%, the “Known Related Substances HN75083” value ([3]; 1 month, 25° C./60% RH) was 0.03% and the “M6G Assay, Anhydrous basis” value ([3]; 1 month, 25° C./60% RH) was 88.23 % w/w. The “M6G Assay, As is basis” value ([3]; 1 month, 25° C./60% RH) was 81.96 % w/w, the “M6G Assay, Corrected for the salt form” value ([3]; 1 month, 25° C./60% RH) was 99.32 % w/w and the “Total Known” value ([3]; 1 month, 25° C./60% RH) was 0.83%. For the same compound, the “Total Related Substances” value ([3]; 1 month, 25° C./60% RH) was 0.91%, the “Total Unknown” value ([3]; 1 month, 25° C./60% RH) was 0.08% and the “Known Related Substances HN33177” value ([3]; 1 month, 40° C./75% RH) was 0.70%. The “Known Related Substances HN67003” value ([3]; 1 month, 40° C./75% RH) was 0.58%, the “Known Related Substances HN75076” value ([3]; 1 month, 40° C./75% RH) was 0.03% and the “Known Related Substances HN75083” value ([3]; 1 month, 40° C./75% RH) was 0.02%. The “Known Related Substances Morphine” value ([3]; 1 month, 40° C./75% RH) was 0.10%, the “M6G Assay, Anhydrous basis” value ([3]; 1 month, 40° C./75% RH) was 84.17 % w/w and the “M6G Assay, As is basis” value ([3]; 1 month, 40° C./75% RH) was 77.62 % w/w. The “M6G Assay, Corrected for the salt form” value ([3]; 1 month, 40° C./75% RH) was 94.76 % w/w, the “Total Known” value ([3]; 1 month, 40° C./75% RH) was 1.43% and the “Total Related Substances” value ([3]; 1 month, 40° C./75% RH) was 2.60%. For the same compound, the “Total Unknown” value ([3]; 1 month, 40° C./75% RH) was 1.17%, the “Known Related Substances HN33177” value ([3]; 1 month, 60° C.) was 0.62% and the “Known Related Substances HN67003” value ([3]; 1 month, 60° C.) was 0.97%. The “Known Related Substances HN75076” value ([3]; 1 month, 60° C.) was 0.06%, the “Known Related Substances HN75083” value ([3]; 1 month, 60° C.) was 0.02% and the “Known Related Substances Morphine” value ([3]; 1 month, 60° C.) was 0.24%. For the same compound, the “M6G Assay, Anhydrous basis” value ([3]; 1 month, 60° C.) was 82.11 % w/w, the “M6G Assay, As is basis” value ([3]; 1 month, 60° C.) was 77.33 % w/w and the “M6G Assay, Corrected for the salt form” value ([3]; 1 month, 60° C.) was 92.44 % w/w. For the same compound, the “Total Known” value ([3]; 1 month, 60° C.) was 1.91%, the “Total Related Substances” value ([3]; 1 month, 60° C.) was 3.85% and the “Total Unknown” value ([3]; 1 month, 60° C.) was 1.94%. For the same compound, the “Known Related Substances HN33177” value ([3]; 3 months, 25° C./60% RH) was 0.75%, the “Known Related Substances HN67003” value ([3]; 3 months, 25° C./60% RH) was 0.26% and the “Known Related Substances HN75083” value ([3]; 3 months, 25° C./60% RH) was 0.10%. For the same compound, the “Known Related Substances Morphine” value ([3]; 3 months, 25° C./60% RH) was 0.07%, the “M6G Assay, Anhydrous basis” value ([3]; 3 months, 25° C./60% RH) was 87.15 % w/w and the “M6G Assay, As is basis” value ([3]; 3 months, 25° C./60% RH) was 81.20 % w/w. The “M6G Assay, Corrected for the salt form” value ([3]; 3 months, 25° C./60% RH) was 98.11 % w/w, the “Total Known” value ([3]; 3 months, 25° C./60% RH) was 1.18% and the “Total Related Substances” value ([3]; 3 months, 25° C./60% RH) was 1.90%. The “Total Unknown” value ([3]; 3 months, 25° C./60% RH) was 0.72%, the “Known Related Substances HN33177” value ([3]; 3 months, 40° C./75% RH) was 0.57% and the “Known Related Substances HN67003” value ([3]; 3 months, 40° C./75% RH) was 1.56%. The “Known Related Substances HN75076” value ([3]; 3 months, 40° C./75% RH) was 0.40%, the “Known Related Substances Morphine” value ([3]; 3 months, 40° C./75% RH) was 0.45% and the “M6G Assay, Anhydrous basis” value ([3]; 3 months, 40° C./75% RH) was 79.38 % w/w. The “M6G Assay, As is basis” value ([3]; 3 months, 40° C./75% RH) was 71.64 % w/w, the “M6G Assay, Corrected for the salt form” value ([3]; 3 months, 40° C./75% RH) was 89.37 % w/w and the “Total Known” value ([3]; 3 months, 40° C./75% RH) was 2.98%. For the same compound, the “Total Related Substances” value ([3]; 3 months, 40° C./75% RH) was 9.07%, the “Total Unknown” value ([3]; 3 months, 40° C./75% RH) was 6.09% and the “drop in assay compared to the initial values” ([3]; 3 months, 40° C./75% RH) was “around 10%”. For the same compound, the “Known Related Substances HN33177” value ([3]; Initial) was 0.77%, the “Known Related Substances HN67003” value ([3]; Initial) was 0.04% and the “Known Related Substances HN75083” value ([3]; Initial) was 0.05%. For the same compound, the “M6G Assay, Anhydrous basis” value ([3]; Initial) was 89.44 % w/w, the “M6G Assay, As is basis” value ([3]; Initial) was 84.11 % w/w and the “M6G Assay, Corrected for the salt form” value ([3]; Initial) was 100.71 % w/w. The “Total Known” value ([3]; Initial) was 0.86%, the “Total Related Substances” value ([3]; Initial) was 0.95% and the “Total Unknown” value ([3]; Initial) was 0.09%. For the same compound, the Appearance ([4]; 1 month, 25° C./60% RH) was “White crystalline powder”, the Appearance ([4]; 1 month, 40° C./75% RH) was “Pale yellow crystalline powder” and the Appearance ([4]; 1 month, 60° C.) was “Yellow crystalline powder”. The Appearance ([4]; 3 months, 25° C./60% RH) was “Pale yellow crystalline powder”, the Appearance ([4]; 3 months, 40° C./75% RH) was “Yellow crystalline powder” and the Appearance ([4]; Initial) was “White crystalline powder”.

Source: patent publication US20060166900A1, “Salt of morphine-6-glucuronide” (CeNeS Limited, priority 2002, published 2006)
